Literature values, collected in patent US10596038B2, “Corneal denervation for treatment of ocular pain” (Journey1, Inc., priority 2009, dated 2020).

Details: after 24 hours

- detectability in the blood: undetectable
Compound: COc1cc(CNC(=O)CCCC/C=C/C(C)C)ccc1O [Capsaicin]
